Test [1] has as its system cones of cone-enriched cultures from chicken embryo. Description: Cone survival in cone-enriched cultures from chicken embryo (live/dead assay). The test is classed as cell-based. The text has this:
FIG. 1: Identification of an extract from Uvaria chamae protecting cones by high content screening of 800 extracts from 200 medicinal plants using cone-enriched cultures from chicken embryo. A. The set represents a total of 12,800 tests. a: methanol polyamide, b: ethyl acetate, c: depleted ethyl acetate, d: depleted methanol. The figure gives an overview of the screening. […] C. Chromatogram of the fractionation by HPLC of Uvaria chamae the fraction Ucac3. The eight fractions (Ucac3F 1-8) are indicated by grey/white shading. D. Test of the protective activity on cones of the Ucac3 fractions 1-8. E. Purification scheme. F. Chromatographic profile of purified Geralexin. G. Structure of Geralexin (C37H66O7).
(§1) The therapeutic molecule, the acetogenin Geralexin (C37H66O7) (FIG. 1G) was purified to homogeneity from 100 kg of leaves of Uvaria chamae, a medicinal plant. […] We have fractionated Uvaria chamae extract by 7 steps of chromatography and characterized the molecule that we called Geralexin (FIG. 1E). […] Uc acts as RdCVF by stimulating aerobic glycolysis. […] The hydrophobicity of acetogenins allows their penetration into cones where Geralexin could bind and activate aerobic glycolysis (FIG. 2F-H). We search for genes encoding glycolytic enzymes with an expression profile indicating possible function in photoreceptors in our own web database KBaSS. […] PFKFB2 is a bifunctional protein with a N-terminal kinase domain that converts fructose 6 phosphate (F6P) into fructose 2,6 biphosphate (F26BP), an allosteric activator of phosphofructokinase (PFK), which catalyzes the rate-limiting step of glycolysis. […] We have analyzed the metabolome of the cone-enriched cultures exposed to Uc with the platform MetaToul (Toulouse). […] Our hypothesis is that Geralexin could be a treatment, alone or in addition to other interventions for dry AMD by preventing cone outer segment shortening and maintaining central vision.

The test system of test [2] is cones of rd1 retinal explants. Description: Cone protection on cultured retinal explants of the rd1 mouse. The class given is cell-based.
Test [3] concerns glucose uptake by cones. Kind of test: Uptake of NBDG (fluorescent deoxyglucose derivative) in cone-enriched cultured cells. The class given is cell-based, chicken. As for the experimental part:
FIG. 2: Geralexin protects cones by stimulating aerobic glycolysis. A. Analysis of the effect of cone cell morphology in cone-enriched cultures by Geralexin (UcaC3F8f3). Cells are labeled with calcein AM. […] C. […] G. Comparative analysis of the protection of Geralexin (Uc: G3) on cone-enriched cultures in 15 versus 30 mM glucose. H. Ratio Geralexin+/no Geralexin.
The therapeutic molecule, the acetogenin Geralexin (C37H66O7) (FIG. 1G) was purified to homogeneity from 100 kg of leaves of Uvaria chamae, a medicinal plant. […] We have fractionated Uvaria chamae extract by 7 steps of chromatography and characterized the molecule that we called Geralexin (FIG. 1E). […] Uc acts as RdCVF by stimulating aerobic glycolysis. […] The hydrophobicity of acetogenins allows their penetration into cones where Geralexin could bind and activate aerobic glycolysis (FIG. 2F-H). We search for genes encoding glycolytic enzymes with an expression profile indicating possible function in photoreceptors in our own web database KBaSS. […] PFKFB2 is a bifunctional protein with a N-terminal kinase domain that converts fructose 6 phosphate (F6P) into fructose 2,6 biphosphate (F26BP), an allosteric activator of phosphofructokinase (PFK), which catalyzes the rate-limiting step of glycolysis. […] We have analyzed the metabolome of the cone-enriched cultures exposed to Uc with the platform MetaToul (Toulouse). […]

Test [4] relates to PFKFB2 mRNA. Kind of test: PFKFB2 mRNA expression by cones of cone-enriched culture, quantitative RT-PCR. The class given is cell-based, chicken.
Description: (§2) G6P: glucose-6-phosphate, F6P; fructose-6-phosphate, F16BP: fructose-1,6-biphosphate, G3P: glycerol-3-phosphate, 2/3PG: 2- and 3-phosphoglycerate and PEP: phosphoenol pyruvate,
as §1

Test [5] concerns phosphofructokinase (PFK). Description: Metabolomic analysis of cone-enriched cultures (MetaToul platform). The test is classed as cell-based, chicken. The following applies: by metabolomic analysis.
Description: as §2, §1

With `CCCCCCCCCC1OC1C1CCC(/C=C\C=C\CCC(O)C(O)CCC(O)CCCCCCCCCCC(=O)O)O1` (stereo not shown) [Geralexin], the “protective effect on cones after silencing BSG1” value in test [1] (cone-enriched culture after electroporation of a micro RNA targeting BSG1) was “Absence of reduction of the protective effect”. Also, the “cone survival / protection of cones” value in test [1] (cone-enriched cultures from chicken embryo) was “stimulates aerobic glycolysis and cone survival”. In addition, the “effect of oxamate on the cone survival effect” value in test [1] (cone-enriched cultures, with lactate dehydrogenase inhibitor oxamate) was “Reduction of the protection of cone”. Moreover, the “protection of cones / cone survival” value in test [2] is “Protection of cones”. Besides, in test [3], the “glucose (NBDG) uptake by cones” value is on record as “Increase of the uptake of NBDG”. Moreover, the “expression of PFKFB2 mRNA” value in test [4] is listed as “Increase expression of PFKFB2 mRNA”. In addition, in test [5], the “phosphofructokinase (PFK) activity” value was “Increase phosphofructokinase (PFK) activity”.

Values taken from patent US20250084069A1, “GERALEXIN AND USES THEREOF FOR THE TREATMENT OF RETINAL DEGENERATIVE DISEASES” (INSTITUT NATIONAL DE LA SANTÉ ET DE LA RECHERCHE MÉDICALE, priority 2022, published 2025).
